The values that follow come from ChEMBL document CHEMBL1157517, “Hepatitis C virus NS3-4A serine protease inhibitors: SAR of new P1 derivatives of SCH 503034” (Bioorg Med Chem Lett, 2008).

The nature of data set [1]: Inhibition of HCV NS3 serine protease. The arrangement: species or system Hepacivirus hominis.
The nature of data set [2]: AUC in rat at 3 mg/kg, po. The conditions noted are these: plasma. The data set is classed as ADME, organism-based. On the set-up: dose 3 mg/kg, route oral.
Data set [3] deals with Hepatitis C virus. As to the kind of experiment: Antiviral activity against HCV. It counts as functional, Hepacivirus hominis.

Broadly, the Ki is a measure of affinity in units of concentration, obtained from inhibition or displacement. A low value points to higher affinity. In data set [1], `CCC(F)(F)CC(NC(=O)[C@@H]1[C@@H]2[C@H](CN1C(=O)[C@@H](NC(=O)NC(C)(C)C)C(C)(C)C)C2(C)C)C(=O)C(N)=O` (stereo partly drawn) returned an inhibition constant (Ki) of 0.36 µM. That is a sub-micromolar value. The AUC is the area under the concentration-time curve, a measure of exposure. Low values mean less exposure, high ones more exposure. `CC(C)(C)NC(=O)N[C@H](C(=O)N1C[C@H]2[C@@H]([C@H]1C(=O)NC(CC1(F)CCC1)C(=O)C(N)=O)C2(C)C)C(C)(C)C` (stereo partly drawn): the inhibitory constant (Ki) in data set [1] was 0.21 µM. Further, the AUC in data set [2] was 0.31 µM·h. Take `CC(C)(C)NC(=O)N[C@H](C(=O)N1C[C@H]2[C@@H]([C@H]1C(=O)NC(C[C@H]1C[C@@H](O)C1)C(=O)C(N)=O)C2(C)C)C(C)(C)C` (stereo partly drawn): the inhibition constant (Ki) in data set [1] is 0.16 µM. In general, EC90 refers to the concentration needed for an effect of 90%. A higher EC90 goes with a need for much substance. In data set [1], `CC(C)(C)NC(=O)N[C@H](C(=O)N1C[C@H]2[C@@H]([C@H]1C(=O)NC(CCC(F)(F)F)C(=O)C(N)=O)C2(C)C)C(C)(C)C` (stereo partly drawn) gave an inhibition constant (Ki) of 0.065 µM. This compound also returned an EC90 in data set [3] of 0.6 µM. This compound showed an exposure (AUC) in data set [2] of 0.02 µM·h. The compound `CC(C)(C)NC(=O)N[C@H](C(=O)N1C[C@H]2[C@@H]([C@H]1C(=O)NC(CC1CC(F)(F)C1)C(=O)C(N)=O)C2(C)C)C(C)(C)C` (stereo partly drawn) came in with a Ki in data set [1] of 0.098 µM. The compound also yielded a 90% effect concentration (EC90) in data set [3] of 1.2 µM. The same compound returned an AUC in data set [2] of 1.1 µM·h. In data set [1], `CC(C)(C)NC(=O)N[C@H](C(=O)N1C[C@H]2[C@@H]([C@H]1C(=O)NC(CCCC(F)(F)F)C(=O)C(N)=O)C2(C)C)C(C)(C)C` (stereo partly drawn) registered a Ki of 1.3 µM. That is a single-digit micromolar value. For the compound `CC(F)(F)CC(NC(=O)[C@@H]1[C@@H]2[C@H](CN1C(=O)[C@@H](NC(=O)NC(C)(C)C)C(C)(C)C)C2(C)C)C(=O)C(N)=O` (stereo partly drawn), the Ki in data set [1] amounted to 0.23 µM. This Ki lies about 5.7-fold lower than the previous one. The same measure, in the same setting: next, `CC(C)(C)NC(=O)N[C@H](C(=O)N1C[C@H]2[C@@H]([C@H]1C(=O)NC(CC(F)(F)F)C(=O)C(N)=O)C2(C)C)C(C)(C)C` (stereo partly drawn): 0.12 µM; `CC(C)(C)NC(=O)N[C@H](C(=O)N1C[C@H]2[C@@H]([C@H]1C(=O)NC(CC1(O)CCC1)C(=O)C(N)=O)C2(C)C)C(C)(C)C` (stereo partly drawn): 163 µM. As for `CC(C)(C)NC(=O)N[C@H](C(=O)N1C[C@H]2[C@@H]([C@H]1C(=O)NC(CC1CC1(F)F)C(=O)C(N)=O)C2(C)C)C(C)(C)C` (stereo partly drawn), affinity in data set [1] was put at a Ki of 0.05 µM. This compound gave an EC90 in data set [3] of 1 µM. Regarding `CC(C)(C)NC(=O)N[C@H](C(=O)N1C[C@H]2[C@@H]([C@H]1C(=O)NC(CC1CCC1)C(=O)C(N)=O)C2(C)C)C(C)(C)C` (stereo partly drawn) [BOCEPREVIR], in data set [1], the Ki came to 0.014 µM. The compound also registered an EC90 in data set [3] of 0.35 µM.
